The source of these data is patent publication US20120034631A1, “ANTI-LYSOPHOSPHOLIPID ANTIBODY DESIGN USING ANTIBODY STRUCTURES” (priority 2010, published 2012).

Marks after values point to notes of the source that are not given here.

In one assay the test system is ovarian tumor SKOV3. In words: SKOV3 ovarian tumor progression and cytokines in nude mice. The format is in vivo. As to the method: Human mAb LT3015 reduced ovarian tumor SKOV3 progression and circulating cytokines in biological fluids. Nude mice were engrafted with either 10 mg/kg LT3015, vehicle, or 2 mg/kg paclitaxel (Taxol). After 56 days, mice were sacrificed and the peritoneal cavities were analyzed for tumor burden and ascites fluid accumulation. Tumors were harvested and final tumor weights were determined along with ascites volumes. Data were analyzed by ANOVA and student's t-test analysis. […] Serum and ascites levels of IL-6, IL-8, GM-CSF and VEGF were measured using ELISA kits from R&D systems, Minneapolis Minn.

Assay [1] deals with IL-6 release, SKOV3 ovarian cells. In words: LPA-induced IL-6 release in SKOV3 cells. The format is cell-based, human. The note with it: 1 uM LPA alone (stimulus). As to the method: (§1) Anti-LPA antibodies inhibit the LPA-dependant release of human CXCL8/IL-8 in conditioned media of SKOV3 ovarian cells. SKOV3 cells (Lot No 4255558, passage 14) were harvested with 2 ml of 1× Trypsin EDTA (Mediatech Inc, Cat. No 25-053-CV) and resuspended in 8 ml of complete medium (10% FBS, Mediatech Inc. Cat. no 35-011-CV). The cells were centrifuged for 5 min ([…]) and re-suspended in 5 ml of complete medium. Cells were counted in duplicate with 0.4% Trypan blue (10 ul cells plus 90 ul Trypan blue, Invitrogen, Cat. No 15250-061) using a hemocytometer. In a 96-well plate, 1×10^5 cells per well were seeded (final volume 100 ul/well). The cells were allowed to attach and form a confluent monolayer by incubating overnight at 37° C. On the following day, cells were gently washed two times with minimum media (1 mg/ml BSA in McCoy's medium with L-glutamine, Mediatech, Cat. No 10-050-CV). […] The CXCL8/IL-8 levels in each supernatant were measured using the Quantikine human CXCL8/IL-8 ELISA kit according to vendor instructions (R&D Systems, Minneapolis Minn., Cat. No D8000C). The IL-6 levels were measured by ELISA using the Quantikine human IL-6 immunoassay kit (R&D systems, Cat. No. D6050). Data were analyzed by one-way ANOVA followed by Bonferroni's post test and expressed as human IL-8 or human IL-6 fold increase.

Assay [2] relates to CXCL8/IL-8 release, SKOV3 ovarian cells. In words: LPA-induced IL-8 release in SKOV3 cells. The format is cell-based, human. As to conditions: 1 uM LPA alone (stimulus). As for the experimental part:
as §1

The subject of the next assay is SKOV3 cells. In words: Tumor cell migration in the scratch assay. The format is cell-based. As to conditions: 17 hr. As for the experimental part:
SKOV3 cells were plated at 15,000 cells per well in a 96-well plate. The following day the cells were serum starved in minimal media (McCoy's Media 5a, adjusted to contain L-Glutamine, 2.2 g/L Sodium Bicarbonate, 1% penicillin/streptomycin and 1 mg/ml BSA) for 24 hrs. At time 0 cells were scratched with a p200 pipet tip down the center of each well, washed with minimal media and pictures were taken prior to treatment. Cells were then treated with LPA (C18:1) at 0.2 uM, 1.0 uM and 10 uM concentrations which were pre-incubated at 37° C. with […] in the presence or absence of antibody at 150 ug/ml. Positive control (10% FBS treated cells) and antibody alone added to 1 uM LPA, were also tested. Cells were stimulated for 17 hrs at 37° C. in a 5% CO2 incubator. Pictures were taken again 17 hr post-treatment and % wound closure was measured by adjusting pictures to the same size and measuring the width of the scratch at time 0 and time 17 hr with a ruler. Data were analyzed by Student's t-test.

`CC(=O)O[C@H]1C(=O)[C@@]2(C)[C@H]([C@H](OC(=O)c3ccccc3)[C@]3(O)C[C@H](OC(=O)[C@H](O)[C@@H](NC(=O)c4ccccc4)c4ccccc4)C(C)=C1C3(C)C)[C@]1(OC(C)=O)CO[C@@H]1C[C@@H]2O` [Taxol, paclitaxel]: in the assay on ovarian tumor SKOV3 (56 days, LT3015 10 mg/kg, Taxol 2 mg/kg, mean ± S.E., vehicle 1274 ± 209), the “Tumor Burden” value was 381 ± 73 mg. Moreover, the “% Reduction (tumor burden)” value with ovarian tumor SKOV3 (56 days, LT3015 10 mg/kg, Taxol 2 mg/kg, versus vehicle) is 70.1%. In the assay on ovarian tumor SKOV3 (LT3015 10 mg/kg (N = 4), Taxol 2 mg/kg (N = 1), vehicle 1200 ± 248.2), this compound returned a GM-CSF-ascites of 2054 ± 0 pg/mL. The same compound came in with an IL-8-ascites with ovarian tumor SKOV3 (LT3015 10 mg/kg (N = 4), Taxol 2 mg/kg (N = 1), vehicle 2097 ± 132.1) of 2187 ± 0 pg/mL. This compound also registered a VEGF-ascites in the assay on ovarian tumor SKOV3 (LT3015 10 mg/kg (N = 4), Taxol 2 mg/kg (N = 1), vehicle 3341 ± 202.5) of 3344 ± 0 pg/mL. In the assay with ovarian tumor SKOV3 (LT3015 10 mg/kg, Taxol 2 mg/kg, vehicle 3.563 ± 1.144), the Ascites volume is recorded as 0.2 ± 0.0 mL. Also, the IL-6-serum in the assay with ovarian tumor SKOV3 (LT3015 10 mg/kg, Taxol 2 mg/kg, vehicle 84.56 ± 16.62) is given as 29.19 ± 9.568 pg/mL. The compound also returned a GM-CSF-serum with ovarian tumor SKOV3 (LT3015 10 mg/kg, Taxol 2 mg/kg, vehicle 320.5 ± 43.18) of 340.2 ± 62.98 pg/mL. In the assay on ovarian tumor SKOV3 (LT3015 10 mg/kg, Taxol 2 mg/kg, vehicle 687.6 ± 114.1), this compound yielded an IL-8-serum of 234.7 ± 83.04 pg/mL. Further, in the assay with ovarian tumor SKOV3 (animals with ascites / animals, LT3015 10 mg/kg, Taxol 2 mg/kg, vehicle 6/11), the Ascites presence was 1/7.

Regarding Lysophosphatidic acid [LPA], the “Human IL-6 Fold Increase (approx).” value in assay [1] is on record as ~29## fold. In addition, in assay [2], the “Human IL-8 Fold Increase (approx).” value is listed as ~7.1## fold. Further, the “Percent wound closure (approx.)” value in the assay on SKOV3 cells (0.2 uM LPA) is recorded as roughly 65%; with SKOV3 cells (1.0 uM LPA), roughly 81%; in the assay on SKOV3 cells (10 uM LPA) it was roughly 89%.
